The values that follow come from patent US11813338B2, “Diagnosing and treating cancer” (The Trustees of the University of Pennsylvania, priority 2013, dated 2023).

For series [1], the system named is ChoK. Kind of series: ChoK activity by 14C-labeled choline uptake, TLC/autoradiography, in MDA-MB-231 cells. It is filed as cell-based, human. The note with it: for ChoK inhibition (PC production as % control): MDA-MB-231 cells, increasing concentrations, 14 h following 14C-choline addition; for IC50 of ChoK inhibition: relative to positive control MN58b. The procedure: ChoK activity was assessed in triple-negative MDA-MB-231 breast cancer cells and in non-transformed MCF10a breast epithelial cells using ^14C-labeled choline uptake.
MDA-MB-231 cells and non-malignant MCF-10a cells were incubated for 14 hr with JAS239 and analyzed by TLC/autoradiography after ^14C-choline labeling.
MDA-MB-231 cells were incubated with increasing concentrations of JAS239 or JAS240. 14 h following ^14C-choline addition, cells were extracted for TLC/autoradiography analysis. […] MN58b was used as positive control.

The subject of series [2] is MDA-MB-231 cells. Kind of series: Fluorescent confocal microscopy, subcellular localization. It is filed as cell-based, human. The note with it: 2 μM. The procedure: (§1) Immunofluorescence studies confirmed the specificity of ChoKα binding (FIG. 7). […] Cells were treated with a Rabbit polyclonal antibody to human ChoKα followed by a Texas Red Goat Anti-Rabbit IgG secondary antibody. Confocal images were taken using a Leica DMI6000 B microscope with channels for Texas Red (Ex: 594 nm, Em: 600-630 nm), and JAS239 (Ex: 633 nm, Em: 728-800 nm).

For series [3], the target named is T1, ChoK (Homo sapiens, UniProt P35790).
T1 construct: endogenous in cells; host or cells: MDA-MB-231 (and MCF10a) cells
The series can be described thus: Choline competition: phosphorylation of 14C-labeled choline with varying choline concentrations. It is filed as cell-based. The note with it: MDA-MB-231 cells, 2 hr, 10 μM. On the procedure:
(§2) MDA-MB-231 cells were treated for 2 hr with or without 10 μM JAS239 in the presence of varying concentrations of choline. Autoradiography was used to estimate phosphorylation of ^14C-labeled choline. Fluorimetry was performed under the same cellular conditions for estimation of probe uptake (Excitation 640 nm, Emission 770 nm). These values represent a ratio of JAS239 treated vs. untreated cells, and are reported relative to control.

The subject of series [4] is MDA-MB-231 cells. The series can be described thus: Fluorimetry of probe uptake in MDA-MB-231 cells. It is filed as cell-based, human. On the procedure:
MDA-MB-231 cells were incubated with JAS239 and the fluorescence measured (Excitation 640 nm, Emission 770 nm).
as §2

Another series deals with T2, human ChoKα (Homo sapiens, UniProt P35790).
T2 construct: endogenous in cells; host or cells: MDA-MB-231 cells (fixed, permeabilized)
Kind of series: Immunofluorescence study of ChoKα binding specificity. It is filed as cell-based. The note with it: fixed permeabilized MDA-MB-231 cells, 2 μM, added before or after ChoKα antibody. The procedure:
as §1

A further series deals with MDA-MB-231 tumors. Kind of series: In vivo fluorescence distribution in mice bearing MDA-MB-231 tumors. Also noted: species or system athymic nude mice.

T2 sequence (P35790 whole entry): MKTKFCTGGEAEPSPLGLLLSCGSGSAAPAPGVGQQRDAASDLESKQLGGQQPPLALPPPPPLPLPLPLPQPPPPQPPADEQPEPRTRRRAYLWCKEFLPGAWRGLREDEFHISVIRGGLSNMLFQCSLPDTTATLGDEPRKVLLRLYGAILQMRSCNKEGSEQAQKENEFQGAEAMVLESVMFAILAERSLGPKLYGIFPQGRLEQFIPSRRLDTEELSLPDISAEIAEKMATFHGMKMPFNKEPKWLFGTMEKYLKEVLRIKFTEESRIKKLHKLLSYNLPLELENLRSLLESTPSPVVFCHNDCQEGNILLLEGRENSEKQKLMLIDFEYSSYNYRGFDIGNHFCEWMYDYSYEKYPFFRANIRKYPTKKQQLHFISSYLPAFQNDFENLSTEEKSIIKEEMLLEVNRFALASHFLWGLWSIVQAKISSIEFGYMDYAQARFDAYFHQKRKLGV
T1 sequence (P35790 whole entry): as above

For `CN1\C(=C/C=C/C=C/C=C/C2=[N+](C)c3ccccc3C2(C)C)C(C)(C)c2ccccc21.[I-]` [JAS240, 1,3,3-trimethyl-2-((1E,3E,5E)-7-((Z/E)-1,3,3-trimethylindolin-2-ylidene)hepta-1,3,5-trien-1-yl)-3H-indol-1-ium iodide], in the series on ChoK [1], the “ChoK inhibition (PC production as % control)” value is reported as “ChoK inhibition at physiologically-relevant concentrations” and the “IC50 of ChoK inhibition” value is on record as “comparable to MN58b”. Besides, the Subcellular localization result in the series on MDA-MB-231 cells [2] is “localized to the cytoplasm”.

As to `CC1(C)C(/C=C/C=C/C=C/C=C2\N(CCO)c3ccccc3C2(C)C)=[N+](CCO)c2ccccc21` [JAS239, 1-(2-hydroxyethyl)-2-((1E,3E,5E)-7-((Z/E)-1-(2-hydroxyethyl)-3,3-dimethylindolin-2-ylidene)hepta-1,3,5-trien-1-yl)-3,3-dimethyl-3H-indol-1-ium chloride], in the series with ChoK [1], the “Time by which ChoK inhibition is present” value is reported as at most 60 min, the “ChoK inhibition (PC production as % control)” value is reported as “ChoK inhibition at physiologically-relevant concentrations” and the “IC50 of ChoK inhibition” value is recorded as “comparable to MN58b”. Moreover, the “Sensitivity of MDA-MB-231 cells versus non-transformed MCF10a cells” value with ChoK [1] (14 hr incubation, 14C-choline labeling) was “greater sensitivity”. The “Mode of ChoK inhibition” value at ChoK [3] is “competitive inhibitor of ChoK”. Besides, in the series on MDA-MB-231 cells [4], the “Time by which cell uptake is detectable” value was at most 15 min. In addition, in the series with MDA-MB-231 cells [4] (MDA-MB-231 cells, 10 μM, 2 hr), the “Cell uptake versus exogenous choline concentration” value is given as “independent of exogenous choline concentration”. In addition, the “Cell uptake versus probe concentration” value with MDA-MB-231 cells [4] (MDA-MB-231 cells, Excitation 640 nm, Emission 770 nm) is “linearly proportional to concentration”. Also, the Subcellular localization entry with MDA-MB-231 cells [2] is “co-localizes with the cytosolic expression of ChoK”. Besides, the “Specificity of binding to ChoKα” value on human ChoKα is “specific to ChoKα”. The “Tissue accumulation of probe fluorescence” value in the series with MDA-MB-231 tumors (20 nmol i.v., 15 min post-injection, Ex. 745 nm, Em 800 nm) is “accumulate in the kidneys and tumor”. In the series with MDA-MB-231 tumors (excised tissue, dual CCD fluorescence camera), the “Fluorescence in background muscle tissue” value was “no fluorescence detectable”.
